This passage reports inhibition results from patent US11572590B2, “Methods for evaluating tumor cell spheroids using 3D microfluidic cell culture device” (Dana-Farber Cancer Institute, Inc., priority 2017, dated 2023).

Like-named read-outs stand apart in the source and are kept apart here.

Experiment in all cases: SelectScreen Kinase Profiling, single point inhibition and IC50 for off-target kinases
What all share (type): biochemical

Test [1] concerns the target off-target kinases (Homo sapiens, UniProt P27037). The following applies: ACVR2A, LanthaScreen Binding. For orientation: TR-FRET usually uses a lanthanide donor and a delayed reading to cut background.
Test [2] addresses off-target kinases (Homo sapiens, UniProt Q9Y463). To be noted: DYRK1B, ZLYTE, ATP Km app.
Test [3] concerns the target off-target kinases (Homo sapiens, UniProt Q8N5S9). To be noted: CAMKK1 (CAMKKA), LanthaScreen Binding.
The target in test [4] is T1, off-target kinases (Homo sapiens, UniProt O94768).
T1 sequence (O94768 1-372): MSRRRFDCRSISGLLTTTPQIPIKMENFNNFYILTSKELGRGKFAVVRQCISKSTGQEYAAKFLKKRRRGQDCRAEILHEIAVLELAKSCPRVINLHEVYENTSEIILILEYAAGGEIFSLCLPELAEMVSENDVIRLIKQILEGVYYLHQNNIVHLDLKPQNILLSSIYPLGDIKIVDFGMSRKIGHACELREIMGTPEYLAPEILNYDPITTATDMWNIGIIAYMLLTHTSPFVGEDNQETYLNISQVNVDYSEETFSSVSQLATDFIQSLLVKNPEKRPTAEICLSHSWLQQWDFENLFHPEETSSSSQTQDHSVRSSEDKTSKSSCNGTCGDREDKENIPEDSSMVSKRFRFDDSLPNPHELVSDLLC
The following applies: STK17B (DRAK2), LanthaScreen Binding.

Test [5] has as its target off-target kinases (Homo sapiens, UniProt P10721, D816H). The following applies: KIT D816H, LanthaScreen Binding.
The target in test [6] is T2, off-target kinases (Homo sapiens, UniProt O94806).
T2 sequence (O94806 1-890): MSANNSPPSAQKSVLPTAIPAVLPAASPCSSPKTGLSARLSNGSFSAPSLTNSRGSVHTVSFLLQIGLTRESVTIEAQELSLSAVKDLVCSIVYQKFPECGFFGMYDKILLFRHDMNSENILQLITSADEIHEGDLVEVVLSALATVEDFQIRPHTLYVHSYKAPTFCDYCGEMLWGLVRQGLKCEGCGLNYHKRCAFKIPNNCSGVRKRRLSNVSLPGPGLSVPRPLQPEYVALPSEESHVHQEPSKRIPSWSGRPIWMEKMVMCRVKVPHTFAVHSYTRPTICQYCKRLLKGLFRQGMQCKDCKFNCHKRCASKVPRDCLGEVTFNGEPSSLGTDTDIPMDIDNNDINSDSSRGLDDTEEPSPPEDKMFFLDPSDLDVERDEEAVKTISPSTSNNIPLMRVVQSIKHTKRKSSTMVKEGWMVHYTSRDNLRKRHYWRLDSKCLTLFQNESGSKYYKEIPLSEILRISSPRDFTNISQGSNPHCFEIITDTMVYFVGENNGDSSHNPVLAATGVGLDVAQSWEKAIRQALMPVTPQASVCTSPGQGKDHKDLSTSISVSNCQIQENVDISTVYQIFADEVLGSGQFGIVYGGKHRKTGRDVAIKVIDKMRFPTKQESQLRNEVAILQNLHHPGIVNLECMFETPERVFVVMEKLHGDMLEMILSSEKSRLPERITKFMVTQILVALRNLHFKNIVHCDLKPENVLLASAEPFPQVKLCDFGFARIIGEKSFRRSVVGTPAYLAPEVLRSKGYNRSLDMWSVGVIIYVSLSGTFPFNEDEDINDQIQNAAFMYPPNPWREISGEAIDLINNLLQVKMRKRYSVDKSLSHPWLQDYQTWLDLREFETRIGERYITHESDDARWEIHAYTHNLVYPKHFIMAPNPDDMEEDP
To be noted: PRKCN (PKD3), ATP Km app, ZLYTE.

Chain of off-target kinases (Homo sapiens, UniProt P10721, D816H) (P10721 26-976 D816H): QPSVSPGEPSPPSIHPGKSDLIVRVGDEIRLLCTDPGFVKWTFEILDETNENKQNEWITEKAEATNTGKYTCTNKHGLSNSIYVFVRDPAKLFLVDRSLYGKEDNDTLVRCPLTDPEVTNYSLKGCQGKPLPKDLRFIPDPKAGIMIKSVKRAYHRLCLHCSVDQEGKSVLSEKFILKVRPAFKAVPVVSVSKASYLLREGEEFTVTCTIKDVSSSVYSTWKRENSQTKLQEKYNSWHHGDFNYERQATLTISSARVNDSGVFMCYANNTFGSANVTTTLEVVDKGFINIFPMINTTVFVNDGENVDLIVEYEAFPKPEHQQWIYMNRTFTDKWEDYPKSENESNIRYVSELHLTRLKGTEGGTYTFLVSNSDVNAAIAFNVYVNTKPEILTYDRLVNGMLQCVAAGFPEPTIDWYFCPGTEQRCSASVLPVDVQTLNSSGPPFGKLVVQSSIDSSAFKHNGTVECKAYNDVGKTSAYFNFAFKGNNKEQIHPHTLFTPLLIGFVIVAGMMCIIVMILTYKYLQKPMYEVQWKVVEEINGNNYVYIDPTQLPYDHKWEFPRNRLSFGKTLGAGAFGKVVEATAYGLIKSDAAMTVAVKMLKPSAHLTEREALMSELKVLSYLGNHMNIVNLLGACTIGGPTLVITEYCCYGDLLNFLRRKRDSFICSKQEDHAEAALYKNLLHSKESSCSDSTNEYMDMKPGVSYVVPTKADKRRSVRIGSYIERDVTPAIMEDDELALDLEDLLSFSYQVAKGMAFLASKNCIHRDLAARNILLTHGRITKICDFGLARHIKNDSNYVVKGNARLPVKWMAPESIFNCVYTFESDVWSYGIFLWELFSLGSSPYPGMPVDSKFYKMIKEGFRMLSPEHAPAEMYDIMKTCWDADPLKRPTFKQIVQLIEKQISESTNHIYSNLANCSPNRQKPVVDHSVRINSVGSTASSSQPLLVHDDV
Chain of off-target kinases (Homo sapiens, UniProt Q9Y463) (Q9Y463 whole entry): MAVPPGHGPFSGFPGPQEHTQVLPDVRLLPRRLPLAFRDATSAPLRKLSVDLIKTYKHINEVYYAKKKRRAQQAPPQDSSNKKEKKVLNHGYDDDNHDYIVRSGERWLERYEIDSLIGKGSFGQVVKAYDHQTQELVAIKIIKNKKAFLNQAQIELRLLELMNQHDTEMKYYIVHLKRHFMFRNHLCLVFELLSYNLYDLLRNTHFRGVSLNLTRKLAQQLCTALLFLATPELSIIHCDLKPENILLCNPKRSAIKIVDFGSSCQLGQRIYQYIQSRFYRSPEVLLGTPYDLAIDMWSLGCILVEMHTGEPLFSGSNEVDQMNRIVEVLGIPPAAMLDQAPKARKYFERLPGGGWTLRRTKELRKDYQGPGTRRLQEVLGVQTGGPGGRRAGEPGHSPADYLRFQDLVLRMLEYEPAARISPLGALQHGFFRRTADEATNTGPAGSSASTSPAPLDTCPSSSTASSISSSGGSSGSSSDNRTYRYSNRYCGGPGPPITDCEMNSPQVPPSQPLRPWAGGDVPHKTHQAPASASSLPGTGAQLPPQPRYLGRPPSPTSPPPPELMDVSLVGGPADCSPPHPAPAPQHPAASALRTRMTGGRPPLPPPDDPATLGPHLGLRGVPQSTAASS
Chain of off-target kinases (Homo sapiens, UniProt P27037) (P27037 20-513): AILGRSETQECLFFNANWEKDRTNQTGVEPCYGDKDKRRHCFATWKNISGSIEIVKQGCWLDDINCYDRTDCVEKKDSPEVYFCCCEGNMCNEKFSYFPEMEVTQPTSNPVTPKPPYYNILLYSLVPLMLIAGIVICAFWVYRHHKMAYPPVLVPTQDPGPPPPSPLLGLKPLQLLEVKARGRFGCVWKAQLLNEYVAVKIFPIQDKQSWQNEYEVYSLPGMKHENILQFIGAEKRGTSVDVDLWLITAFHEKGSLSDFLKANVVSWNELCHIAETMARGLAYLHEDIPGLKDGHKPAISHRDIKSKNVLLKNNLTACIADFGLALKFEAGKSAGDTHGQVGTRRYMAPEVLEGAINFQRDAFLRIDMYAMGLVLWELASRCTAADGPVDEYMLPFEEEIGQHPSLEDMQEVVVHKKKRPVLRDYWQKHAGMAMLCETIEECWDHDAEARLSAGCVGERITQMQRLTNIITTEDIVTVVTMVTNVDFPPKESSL
Chain of off-target kinases (Homo sapiens, UniProt Q8N5S9) (Q8N5S9 whole entry): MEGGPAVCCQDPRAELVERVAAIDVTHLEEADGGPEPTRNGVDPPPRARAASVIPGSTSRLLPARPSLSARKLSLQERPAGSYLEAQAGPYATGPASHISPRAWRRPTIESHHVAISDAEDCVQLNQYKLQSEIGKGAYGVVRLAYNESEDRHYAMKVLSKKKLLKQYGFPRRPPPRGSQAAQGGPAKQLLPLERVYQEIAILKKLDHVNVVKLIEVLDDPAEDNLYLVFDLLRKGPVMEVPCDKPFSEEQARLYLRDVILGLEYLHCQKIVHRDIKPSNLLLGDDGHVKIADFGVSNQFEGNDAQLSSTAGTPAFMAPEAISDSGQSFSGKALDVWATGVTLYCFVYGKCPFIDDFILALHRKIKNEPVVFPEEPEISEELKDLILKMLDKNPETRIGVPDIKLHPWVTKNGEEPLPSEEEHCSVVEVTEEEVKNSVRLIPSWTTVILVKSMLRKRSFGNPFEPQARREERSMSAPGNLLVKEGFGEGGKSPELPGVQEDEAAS

As to `N#Cc1cc(-c2ncnc(Nc3ccc(N4CCN(C5COC5)CC4)cc3)n2)ccc1OC1CCOCC1` [Compound 1, 5-(4-((4-(4-(oxetan-3-yl)piperazin-1-yl)phenyl)amino)-1,3,5-triazin-2-yl)-2-((tetrahydro-2H-pyran-4-yl)oxy)benzonitrile], the inhibition turned out to be 23% on off-target kinases [1] (read-out: % Inhibition 1); 21% on off-target kinases [1] (read-out: % Inhibition 2); 22% on off-target kinases [1] (read-out: % Inhibition Avg); 14% on off-target kinases [2] (read-out: % Inhibition 1); 9% on off-target kinases [2] (read-out: % Inhibition 2); 11% at off-target kinases [2] (read-out: % Inhibition Avg). Besides, the inhibition at off-target kinases [3] (read-out: % Inhibition 1) was 2%; on off-target kinases [3] (read-out: % Inhibition 2), -1%; at off-target kinases [3] (read-out: % Inhibition Avg) it was 0%; on off-target kinases [4] (read-out: % Inhibition 1), 94%; on off-target kinases [4] (read-out: % Inhibition 2), 84%; at off-target kinases [4] (read-out: % Inhibition Avg), 89%. Moreover, the inhibition on off-target kinases [5] (read-out: % Inhibition 1) came out at 90%; on off-target kinases [5] (read-out: % Inhibition 2), 94%; at off-target kinases [5] (read-out: % Inhibition Avg), 92%; at off-target kinases [6] (read-out: % Inhibition 1), 98%; on off-target kinases [6] (read-out: % Inhibition 2), 96%; at off-target kinases [6] (read-out: % Inhibition Avg), 97%.

A word on the inhibition: it is the drop in the measured response relative to a control, in per cent.
